# Starred links: 1 amine or outer side, 2 acyl side, 3 side chain; linkers in the order of their positions; H or OH if unused. Non-standard residues stand in square brackets, D forms with d. Residues, ends and D or L forms follow the SMILES beside them. Groups on a side chain read outwards from the residue. *: point of attachment. X1 = O=C(O)CCCCCCCCCCCCCCCCCCC(=O)N1CCN(CC(=O)*)CC1; C20 diacid = O=C(O)CCCCCCCCCCCCCCCCCCC(=O)*; γGlu = O=C(O)[C@H](CCC(=O)[*:2])N[*:1]; AEEA = NCCOCCOCC(=O)O; Aib = CC(C)(N)C(=O)O
# What was measured:
# human GIP R = molecular target: T1, human GIP R (Homo sapiens, UniProt P48546); test: cell-based
# T1 sequence (P48546 22-466): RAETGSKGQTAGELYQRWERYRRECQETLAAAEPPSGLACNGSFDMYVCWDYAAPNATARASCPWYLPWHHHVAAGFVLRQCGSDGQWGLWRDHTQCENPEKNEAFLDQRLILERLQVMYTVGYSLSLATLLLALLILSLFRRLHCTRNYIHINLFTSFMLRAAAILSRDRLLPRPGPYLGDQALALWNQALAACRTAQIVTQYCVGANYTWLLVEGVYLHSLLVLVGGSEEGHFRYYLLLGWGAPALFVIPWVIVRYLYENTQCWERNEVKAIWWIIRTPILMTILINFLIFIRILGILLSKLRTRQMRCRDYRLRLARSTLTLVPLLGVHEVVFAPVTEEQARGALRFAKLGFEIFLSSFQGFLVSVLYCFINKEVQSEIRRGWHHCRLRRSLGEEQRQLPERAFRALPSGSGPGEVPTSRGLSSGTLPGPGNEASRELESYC
# [1] = molecular target: human GLP-1 receptor (GLP-1R) (Homo sapiens, UniProt P43220); test: Activity assay at human GLP-1 receptor, cAMP induction (AlphaScreen), Example 3
# human GLP-1 receptor (GLP-1R), sequence (P43220 24-463): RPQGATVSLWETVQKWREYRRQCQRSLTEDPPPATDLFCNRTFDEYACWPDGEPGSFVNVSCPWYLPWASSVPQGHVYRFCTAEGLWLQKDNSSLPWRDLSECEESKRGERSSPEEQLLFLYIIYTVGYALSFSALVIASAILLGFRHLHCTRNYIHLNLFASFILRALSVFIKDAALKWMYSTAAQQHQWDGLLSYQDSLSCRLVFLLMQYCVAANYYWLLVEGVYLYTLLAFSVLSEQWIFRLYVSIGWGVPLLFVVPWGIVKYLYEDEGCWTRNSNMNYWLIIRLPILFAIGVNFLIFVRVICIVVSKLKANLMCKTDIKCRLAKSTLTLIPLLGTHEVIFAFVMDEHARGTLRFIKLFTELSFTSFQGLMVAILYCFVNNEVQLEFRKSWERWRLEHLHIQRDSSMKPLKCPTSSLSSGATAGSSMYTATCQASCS
# in vivo = conditions: male, C57BL/6J, mouse; for bioavailability: Bioavailability s.c.; for half-life: 200 nmol/kg
# [2] = molecular target: T2, human GIP receptor (GIP R) (Homo sapiens, UniProt P48546); test: Activity assay at human GIP receptor, cAMP induction (AlphaScreen), Example 3
# T2 sequence (P48546 22-466): T1 sequence (P48546 22-466)
# [3] = iv, Terminal elimination half-life T½ i.v.
# [4] = sc, Terminal elimination half-life T½ s.c.
SMILES,EC50 (human GIP R) [nM],EC50 [1] [nM],bioavailability (in vivo) [%],half-life (in vivo; [3]) [h],Tmax (in vivo; sc) [h],half-life (in vivo; [4]) [h],EC50 [2] [nM]
CC[C@H](C)[C@H](NC(=O)[C@H](CO)NC(=O)[C@H](Cc1ccc(O)cc1)NC(=O)[C@H](CC(=O)O)NC(=O)[C@H](CO)NC(=O)[C@@H](NC(=O)[C@H](Cc1ccccc1)NC(=O)[C@@H](NC(=O)CNC(=O)[C@H](CCC(=O)O)NC(=O)C(C)(C)NC(=O)[C@@H](N)Cc1ccc(O)cc1)[C@@H](C)O)[C@@H](C)CC)C(=O)N[C@@H](CCC(=O)O)C(=O)N[C@@H](CC(C)C)C(=O)N[C@@H](CC(=O)O)C(=O)N[C@@H](CCCCN)C(=O)N[C@@H](CCCCNC(=O)COCCOCCNC(=O)COCCOCCNC(=O)CC[C@H](NC(=O)CCCCCCCCCCCCCCCCCCC(=O)O)C(=O)O)C(=O)N[C@@H](C)C(=O)N[C@@H](CCC(N)=O)C(=O)N[C@@H](CCCNC(=N)N)C(=O)N[C@@H](C)C(=O)N[C@@H](Cc1ccccc1)C(=O)N[C@H](C(=O)N[C@@H](CCC(=O)O)C(=O)N[C@@H](Cc1c[nH]c2ccccc12)C(=O)N[C@@H](CC(C)C)C(=O)N[C@@H](CC(C)C)C(=O)N[C@@H](C)C(=O)N[C@@H](CCC(N)=O)C(=O)NCC(=O)N1CCC[C@H]1C(=O)N[C@@H](CO)C(=O)N[C@@H](CO)C(=O)NCC(=O)N[C@@H](C)C(=O)N1CCC[C@H]1C(=O)N1CCC[C@H]1C(=O)N1CCC[C@H]1C(=O)N[C@@H](CO)C(N)=O)C(C)C [Compound 17] (H-Y[Aib]EGTFISDYSIELDKK([AEEA-AEEA-γGlu-C20 diacid])AQRAFVEWLLAQGPSSGAPPPS-NH2),0.007,> 3,56,16.3,8,19.9,0.016
CC[C@H](C)[C@H](NC(=O)[C@H](Cc1ccccc1)NC(=O)[C@H](C)NC(=O)[C@H](CCCNC(=N)N)NC(=O)[C@H](CCC(N)=O)NC(=O)[C@H](C)NC(=O)[C@H](CCCCNC(=O)COCCOCCNC(=O)COCCOCCNC(=O)CC[C@H](NC(=O)CCCCCCCCCCCCCCCCCCC(=O)O)C(=O)O)NC(=O)[C@H](CCCCN)NC(=O)[C@H](CC(=O)O)NC(=O)[C@H](CC(C)C)NC(=O)[C@H](CCC(=O)O)NC(=O)[C@@H](NC(=O)[C@H](CO)NC(=O)[C@H](Cc1ccc(O)cc1)NC(=O)[C@H](CC(=O)O)NC(=O)[C@H](CO)NC(=O)[C@@H](NC(=O)[C@H](Cc1ccccc1)NC(=O)[C@@H](NC(=O)CNC(=O)[C@H](CCC(=O)O)NC(=O)C(C)(C)NC(=O)[C@@H](N)Cc1ccc(O)cc1)[C@@H](C)O)[C@@H](C)CC)[C@@H](C)CC)C(=O)N[C@@H](CCC(=O)O)C(=O)N[C@@H](Cc1c[nH]c2ccccc12)C(=O)N[C@@H](CC(C)C)C(=O)N[C@@H](CC(C)C)C(=O)N[C@@H](C)C(=O)N[C@@H](CCC(N)=O)C(=O)NCC(=O)N1CCC[C@H]1C(=O)N[C@@H](CO)C(=O)N[C@@H](CO)C(=O)NCC(=O)N[C@@H](C)C(=O)N1CCC[C@H]1C(=O)N1CCC[C@H]1C(=O)N1CCC[C@H]1C(=O)N[C@@H](CO)C(N)=O [Compound 18] (H-Y[Aib]EGTFISDYSIELDKK([AEEA-AEEA-γGlu-C20 diacid])AQRAFIEWLLAQGPSSGAPPPS-NH2),0.006,> 3,78,17.6,4,15.1,0.007
CC[C@H](C)[C@H](NC(=O)[C@H](CO)NC(=O)[C@H](Cc1ccc(O)cc1)NC(=O)[C@H](CC(=O)O)NC(=O)[C@H](CO)NC(=O)[C@@H](NC(=O)[C@H](Cc1ccccc1)NC(=O)[C@@H](NC(=O)CNC(=O)[C@H](CCC(=O)O)NC(=O)C(C)(C)NC(=O)[C@@H](N)Cc1ccc(O)cc1)[C@@H](C)O)[C@@H](C)CC)C(=O)N[C@@H](CCC(=O)O)C(=O)N[C@@H](CC(C)C)C(=O)N[C@@H](CC(=O)O)C(=O)N[C@@H](CCCCN)C(=O)N[C@@H](CCCCNC(=O)COCCOCCNC(=O)COCCOCCNC(=O)CN1CCN(C(=O)CCCCCCCCCCCCCCCCCCC(=O)O)CC1)C(=O)N[C@@H](C)C(=O)N[C@@H](CCC(N)=O)C(=O)N[C@@H](CCCCN)C(=O)N[C@@H](CCC(=O)O)C(=O)N[C@@H](Cc1ccccc1)C(=O)N[C@H](C(=O)N[C@@H](CCC(=O)O)C(=O)N[C@@H](Cc1c[nH]c2ccccc12)C(=O)N[C@@H](CC(C)C)C(=O)N[C@@H](CC(C)C)C(=O)N[C@@H](C)C(=O)N[C@@H](C)C(=O)NCC(=O)N1CCC[C@H]1C(=O)N[C@@H](CO)C(=O)N[C@@H](CO)C(=O)NCC(=O)N[C@@H](C)C(=O)N1CCC[C@H]1C(=O)N1CCC[C@H]1C(=O)N1CCC[C@H]1C(=O)N[C@@H](CO)C(N)=O)C(C)C [Compound 21] (H-Y[Aib]EGTFISDYSIELDKK([AEEA-AEEA-X1])AQKEFVEWLLAAGPSSGAPPPS-NH2),0.007,> 3,67,24.8,8,21,0.006
CC[C@H](C)[C@H](NC(=O)[C@H](Cc1ccccc1)NC(=O)[C@H](CC(=O)O)NC(=O)[C@H](CCC(N)=O)NC(=O)[C@H](C)NC(=O)[C@H](C)NC(=O)[C@H](CCCCNC(=O)COCCOCCNC(=O)COCCOCCNC(=O)CN1CCN(C(=O)CCCCCCCCCCCCCCCCCCC(=O)O)CC1)NC(=O)[C@H](CCCCN)NC(=O)[C@H](CC(=O)O)NC(=O)[C@H](CC(C)C)NC(=O)[C@H](CCC(=O)O)NC(=O)[C@@H](NC(=O)[C@H](CO)NC(=O)[C@H](Cc1ccc(O)cc1)NC(=O)[C@H](CC(=O)O)NC(=O)[C@H](CO)NC(=O)[C@@H](NC(=O)[C@H](Cc1ccccc1)NC(=O)[C@@H](NC(=O)CNC(=O)[C@H](CCC(=O)O)NC(=O)C(C)(C)NC(=O)[C@@H](N)Cc1ccc(O)cc1)[C@@H](C)O)[C@@H](C)CC)[C@@H](C)CC)C(=O)N[C@@H](CCC(=O)O)C(=O)N[C@@H](Cc1c[nH]c2ccccc12)C(=O)N[C@@H](CC(C)C)C(=O)N[C@@H](CC(C)C)C(=O)N[C@@H](C)C(=O)NCC(=O)N1CCC[C@H]1C(=O)N[C@@H](CO)C(=O)N[C@@H](CO)C(=O)NCC(=O)N[C@@H](C)C(=O)N1CCC[C@H]1C(=O)N1CCC[C@H]1C(=O)N1CCC[C@H]1C(=O)N[C@@H](CO)C(N)=O [Compound 33] (H-Y[Aib]EGTFISDYSIELDKK([AEEA-AEEA-X1])AAQDFIEWLLAGPSSGAPPPS-NH2),0.014,> 10,78,21.7,8,18.7,0.02
CC[C@H](C)[C@H](NC(=O)[C@H](CCCCN)NC(=O)[C@H](CC(=O)O)NC(=O)[C@H](CC(C)C)NC(=O)[C@H](CCC(=O)O)NC(=O)[C@H](CCCCNC(=O)COCCOCCNC(=O)COCCOCCNC(=O)CC[C@H](NC(=O)CCCCCCCCCCCCCCCCCCC(=O)O)C(=O)O)NC(=O)[C@H](CO)NC(=O)[C@H](Cc1ccc(O)cc1)NC(=O)[C@H](CC(=O)O)NC(=O)[C@H](CO)NC(=O)[C@@H](NC(=O)[C@H](Cc1ccccc1)NC(=O)[C@@H](NC(=O)CNC(=O)[C@H](CCC(=O)O)NC(=O)C(C)(C)NC(=O)[C@@H](N)Cc1ccc(O)cc1)[C@@H](C)O)[C@@H](C)CC)C(=O)N[C@@H](C)C(=O)N[C@@H](CCC(N)=O)C(=O)N[C@@H](CCCNC(=N)N)C(=O)N[C@@H](C)C(=O)N[C@@H](Cc1ccccc1)C(=O)N[C@H](C(=O)N[C@@H](CCC(=O)O)C(=O)N[C@@H](Cc1c[nH]c2ccccc12)C(=O)N[C@@H](CC(C)C)C(=O)N[C@@H](CC(C)C)C(=O)N[C@@H](C)C(=O)N[C@@H](CCC(N)=O)C(=O)NCC(=O)N1CCC[C@H]1C(=O)N[C@@H](CO)C(=O)N[C@@H](CO)C(=O)NCC(=O)N[C@@H](C)C(=O)N1CCC[C@H]1C(=O)N1CCC[C@H]1C(=O)N1CCC[C@H]1C(=O)N[C@@H](CO)C(N)=O)[C@@H](C)CC [Compound 35] (H-Y[Aib]EGTFISDYSK([AEEA-AEEA-γGlu-C20 diacid])ELDKIAQRAFIEWLLAQGPSSGAPPPS-NH2),0.008,> 3,73,14.5,4,14.5,0.011
CC[C@H](C)[C@H](NC(=O)[C@H](Cc1ccccc1)NC(=O)[C@H](C)NC(=O)[C@H](CCC(N)=O)NC(=O)[C@H](C)NC(=O)[C@H](C)NC(=O)[C@H](CCCCNC(=O)COCCOCCNC(=O)COCCOCCNC(=O)CN1CCN(C(=O)CCCCCCCCCCCCCCCCCCC(=O)O)CC1)NC(=O)[C@H](CCCCN)NC(=O)[C@H](CC(=O)O)NC(=O)[C@H](CC(C)C)NC(=O)[C@H](CCC(=O)O)NC(=O)[C@@H](NC(=O)[C@H](CO)NC(=O)[C@H](Cc1ccc(O)cc1)NC(=O)[C@H](CC(=O)O)NC(=O)[C@H](CO)NC(=O)[C@@H](NC(=O)[C@H](Cc1ccccc1)NC(=O)[C@@H](NC(=O)CNC(=O)[C@H](CCC(=O)O)NC(=O)C(C)(C)NC(=O)[C@@H](N)Cc1ccc(O)cc1)[C@@H](C)O)[C@@H](C)CC)[C@@H](C)CC)C(=O)N[C@@H](CCC(=O)O)C(=O)N[C@@H](Cc1c[nH]c2ccccc12)C(=O)N[C@@H](CC(C)C)C(=O)N[C@@H](CC(C)C)C(=O)N[C@@H](C)C(=O)N[C@@H](CCC(N)=O)C(=O)NCC(=O)N1CCC[C@H]1C(=O)N[C@@H](CO)C(=O)N[C@@H](CO)C(=O)NCC(=O)N[C@@H](C)C(=O)N1CCC[C@H]1C(=O)N1CCC[C@H]1C(=O)N1CCC[C@H]1C(=O)N[C@@H](CO)C(N)=O [Compound 41],0.014,> 10,70,17.6,8,16.5,0.01

# From patent US12703729B2, “GIP agonist compounds and methods” (Zealand Pharma A/S, priority 2014, dated 2026)
